Laboratory results: patent US7435548B2, “Methods for producing ex vivo models for inflammatory disease and uses thereof” (deCODE genetics ehf., priority 2001, dated 2008)

Legend:
[1] = system: airway smooth muscle (ASM) tissues; assay: ASM constrictor responses to acetylcholine (organ bath, isometric tension); type: tissue-based, New Zealand White rabbits
Protocol: (§1) After anesthesia with xylazine (10 mg/kg) and ketamine (50 mg/kg), the animals were sacrificed with systemic air embolism.
(§2) After incubation, each airway segment was suspended longitudinally between stainless steel triangular supports in siliconized 20-mL organ baths (Harvard Apparatus, Inc., South Natick, Mass.). […] Care was taken to place the membranous portion of the trachea between the supports to maximize the recorded tension generated by the contracting trachealis muscle. […] Passive resting tension of each tracheal smooth muscle segment was set at 2.0 g after each tissue had been passively stretched to a tension of 8 g to optimize the resting length of each segment. The tissues were allowed to equilibrate in the bath for 45 minutes, at which time each tissue was primed with a 1 minute exposure to 10^−4M acetylcholine (ACh). Cholinergic contractility was initially assessed in the ASM by cumulative administration of ACh in final bath concentrations from 10^−9 to 10^−3M. […] The relaxant responses to isoproterenol were analyzed in terms of percent maximal relaxation (Rmax) from the active cholinergic contraction, and sensitivity to the relaxing agent was determined as the corresponding pD50 value associated with 50% Rmax.

human ASM cells = assay: Microarray mRNA expression (Affymetrix HU95GeneFL) in cultured ASM cells; type: cell-based
Excerpt: Simultaneous multiple gene mRNA expression was examined in human ASM cells with the Affymetrix expression microarray system using human gene chips (HU95GeneFL array; Affymetrix, Santa Clara, Calif.) representing approximately 6000 genes. The ASM cells were derived from a donor (Clonetics Corp., San Diego, Calif.) who had no evidence of pulmonary disease, and the cells were carefully characterized by the manufacturer with specific markers to confirm their selective smooth muscle phenotype and to exclude contamination with other cell types.
Following incubation of the cells, the total RNA used for the Affymetrix microarray expression analysis was extracted and purified using commercially available reagents and in accordance with methods recommended by the manufacturer (Affymetrix, Santa Clara, Calif.). Briefly, total RNA was extracted using Trizol and purified with Qiagen RNAEASY spin columns (Qiagen GmbH, Germany). Approximately 5 μg of RNA was used for first and second strand cDNA synthesis. After precipitation, the cDNAs were transcribed to cRNAs. The biotinylated cRNA was subsequently hybridized to the Affymetrix gene chips overnight. Non-bound probes were removed by stringency washing. The hybridized chips were developed using a Streptavidin-Phycoerythrin complex and scanned. The scanned images were then analyzed with Affymetrix software and the data was examined using commercially available software programs, including Spotfire Net 5.1 (Spotfire Inc, Mass.).

[2] = system: airway smooth muscle (ASM) tissues; assay: ASM relaxant responses to isoproterenol after half-maximal ACh contraction (organ bath); type: tissue-based, New Zealand White rabbits; conditions: control ASM
Protocol: as §1, §2

[3] = control ASM (medium alone), mean±SE

CC(=O)OCC[N+](C)(C)C [ACh, acetylcholine] was tested, and the “maximal isometric force of contraction (Tmax) to ACh” value [1, 3] was 93.7±8.9 g/g ASM weight and the “pD50 (−log ED50) for ACh” value [1, 3] was 4.66±0.12 −logM.

With C[C@@H]1C[C@H]2[C@@H]3CCC4=CC(=O)C=C[C@]4(C)[C@@]3(F)[C@@H](O)C[C@]2(C)[C@@]1(O)C(=O)CO [DEX, dexamethasone] the “MER, ABCB2” value (human ASM cells; ATP-binding cassette, ABCB2/X57522, IL-1β/TNFα, presence or absence of DEX 10^−5M) was 1.75, the “MER, AMPD3” value (human ASM cells; Adenosine monophosphate deaminase, AMPD3/D12775, IL-1β/TNFα, presence versus absence of DEX 10^−5M) was 0.82 and the “MER, BCL2A1” value (human ASM cells; BCL2-related protein A1, BCL2A1/U29680, IL-1β/TNFα, presence versus absence of DEX 10^−5M) was 0.41. For the same compound, the “MER, BKR2” value (human ASM cells; Bradykinin receptor-2, BKR2/X86163, IL-1β/TNFα, presence versus absence of DEX 10^−5M) was 0.62, the “MER, CD83” value (human ASM cells; CD83, CD83/Z11697, IL-1β/TNFα, presence versus absence of DEX 10^−5M) was 0.56 and the “MER, CKS2” value (human ASM cells; CDC28 protein kinase-2, CKS2/X54942, IL-1β/TNFα, presence versus absence of DEX 10^−5M) was 0.80. The “MER, CEBPD” value (human ASM cells; Enhancer binding protein, CEBPD/M83667, IL-1β/TNFα, presence or absence of DEX 10^−5M) was 1.48, the “MER, FGF2” value (human ASM cells; Fibroblast growth factor-2, FGF2/J04513, IL-1β/TNFα, presence versus absence of DEX 10^−5M) was 0.69 and the “MER, GBP1” value (human ASM cells; Guanylate binding protein-1, GBP1/M55542, IL-1β/TNFα, presence or absence of DEX 10^−5M) was 1.22. The “MER, HSD11B1” value (human ASM cells; Hydroxysteroid (11-β) dehydrogenase-1, HSD11B1/M7665, IL-1β/TNFα, presence or absence of DEX 10^−5M) was 2.57, the “MER, INHBA” value (human ASM cells; Inhibin, INHBA/X57579, IL-1β/TNFα, presence versus absence of DEX 10^−5M) was 0.00 and the “MER, ICAM-1” value (human ASM cells; Intercellular adhesion molecule-1, ICAM-1/M24283, mRNA elicited by IL-1β/TNFα in presence versus absence of DEX 10^−5M) was 0.66. For the same compound, the “MER, IL-6” value (human ASM cells; Interleukin-6, IL-6/X04602, IL-1β/TNFα, presence versus absence of DEX 10^−5M) was 0.89, the “MER, IL-8” value (human ASM cells; Interleukin-8, IL-8/M28130, IL-1β/TNFα, presence versus absence of DEX 10^−5M) was 0.57 and the “MER, Interleukin-13 receptor-α” value (human ASM cells; Interleukin-13 receptor-α, IL-1 RA2/U70981, IL-1β/TNFα, presence versus absence of DEX 10^−5M) was 0.00. The “MER, KIAA0247” value (human ASM cells; KIAA0247 gene product, KIAA0247/D87434, IL-1β/TNFα, presence or absence of DEX 10^−5M) was 1.3, the “MER, MMP3” value (human ASM cells; Matrix metalloproteinase-3, MMP3/X05232, IL-1β/TNFα, presence versus absence of DEX 10^−5M) was 0.70 and the “MER, MMP10” value (human ASM cells; Matrix metalloproteinase-10, MMP10/X07820, IL-1β/TNFα, presence versus absence of DEX 10^−5M) was 0.00. The “MER, MMP12” value (human ASM cells; Matrix metalloproteinase-12, MMP12/L23808, IL-1β/TNFα, presence versus absence of DEX 10^−5M) was 0.20, the “MER, MAP3K5” value (human ASM cells; Mitogen-activated protein kinase kinase kinase-5, MAP3K5/U67156, IL-1β/TNFα, presence or absence of DEX 10^−5M) was 1.65 and the “MER, MDCP” value (human ASM cells; Monocyte-derived chemotactic protein, MDCP/HG4069, IL-1β/TNFα, presence versus absence of DEX 10^−5M) was 0.29. The “MER, NAF1” value (human ASM cells; Nef-associated factor 1, NAF1/D30755, IL-1β/TNFα, presence versus absence of DEX 10^−5M) was 0.88, the “MER, NINJ1” value (human ASM cells; Ninjurin-1, NINJ1/U72661, IL-1β/TNFα, presence versus absence of DEX 10^−5M) was 0.59 and the “MER, NFATC1” value (human ASM cells; Nuclear factor of activated T cells-C1, NFATC1/U08015, IL-1β/TNFα, presence versus absence of DEX 10^−5M) was 0.61. For the same compound, the “MER, NFKB1” value (human ASM cells; Nuclear factor of kappa light polypeptide, NFKB1/M58603, IL-1β/TNFα, presence versus absence of DEX 10^−5M) was 0.87, the “MER, NR4A3” value (human ASM cells; Nuclear receptor subfamily 4, NR4A3/U12767, IL-1β/TNFα, presence versus absence of DEX 10^−5M) was 0.54 and the “MER, PTX3” value (human ASM cells; PTX3 promoter, PTX3/X97748, IL-1β/TNFα, presence versus absence of DEX 10^−5M) was 0.69. For the same compound, the “MER, PDE4B” value (human ASM cells; Phosphodiesterase-4B, PDE4B/L20971, IL-1β/TNFα, presence versus absence of DEX 10^−5M) was 0.40, the “MER, ATP2B1” value (human ASM cells; Plasma membrane Ca^2+ ATPase, ATP2B1/J04027, IL-1β/TNFα, presence versus absence of DEX 10^−5M) was 0.34 and the “MER, PBEF” value (human ASM cells; Pre-B cell colony-enhancing factor, PBEF/U02020, IL-1β/TNFα, presence versus absence of DEX 10^−5M) was 0.73. The “MER, G0S2” value (human ASM cells; Putative lymphocyte G0/G1 switch gene, G0S2/M72885, IL-1β/TNFα, presence versus absence of DEX 10^−5M) was 0.65, the “MER, RANTES” value (human ASM cells; RANTES, RANTES/M21121, IL-1β/TNFα, presence versus absence of DEX 10^−5M) was 0.67 and the “MER, STAT5A” value (human ASM cells; Signal transducer/activator of transcription 5, STAT5A/U43185, IL-1β/TNFα, presence versus absence of DEX 10^−5M) was 0.87. For the same compound, the “MER, SCYA7” value (human ASM cells; Small inducible cytokine subfamily A7, SCYA7/X72308, IL-1β/TNFα, presence versus absence of DEX 10^−5M) was 0.50, the “MER, SCYB2” value (human ASM cells; Small inducible cytokine subfamily B2, SCYB2/M57731, IL-1β/TNFα, presence versus absence of DEX 10^−5M) was 0.52 and the “MER, SCYB3” value (human ASM cells; Small inducible cytokine subfamily B3, SCYB3/X53800, IL-1β/TNFα, presence versus absence of DEX 10^−5M) was 0.83. The “MER, SCYB6” value (human ASM cells; Small inducible cytokine subfamily B6, SCYB6/U83303, IL-1β/TNFα, presence versus absence of DEX 10^−5M) was 0.61, the “MER, SCYB10” value (human ASM cells; Small inducible cytokine subfamily B10, SCYB10/X02530, IL-1β/TNFα, presence or absence of DEX 10^−5M) was 1.12 and the “MER, SCYB5” value (human ASM cells; Small inducible subfamily B5, SCYB5/L37036, IL-1β/TNFα, presence or absence of DEX 10^−5M) was 1.75. The “MER, SOD2” value (human ASM cells; Superoxide dismutase-2, SOD2/X07834, IL-1β/TNFα, presence versus absence of DEX 10^−5M) was 0.89, the “MER, Tenascin C” value (human ASM cells; Tenascin C, HXB/X78565, IL-1β/TNFα, presence or absence of DEX 10^−5M) was 1.21 and the “MER, TNF-αIP3” value (human ASM cells; Tumor necrosis factor-α-induced protein 3, TNF-αIP3/M59465, IL-1β/TNFα, presence or absence of DEX 10^−5M) was 1.21. The “MER, TNF-αIP6” value (human ASM cells; Tumor necrosis factor-α-induced protein 6, TNF-αIP6/M31165, IL-1β/TNFα, presence or absence of DEX 10^−5M) was 1.11, the “MER, uPA” value (human ASM cells; Urokinase plasminogen activator, uPA/X02419, IL-1β/TNFα, presence versus absence of DEX 10^−5M) was 0.00 and the “inhibition of IL-1β/TNFα induced mRNA expression, p50-NF-kB gene” value (human ASM cells; in the presence of DEX 10^−5M) was 51%. For the same compound, the “inhibition of IL-1β/TNFα induced mRNA expression, phosphodiesterase D4 gene” value (human ASM cells; in the presence of DEX 10^−5M) was 60%, the “inhibition of IL-1β/TNFα induced mRNA expression, plasma membrane Ca^2+ ATPase gene” value (human ASM cells; in the presence of DEX 10^−5M) was 66% and the “MER, pro-Interleukin-1β” value (human ASM cells; pro-Interleukin-1β, IL-1β/X04500, IL-1β/TNFα, presence versus absence of DEX 10^−5M) was 0.45. The “effect on constrictor responses to ACh in control tissues” value ([1]; DEX 10^−5M alone) was “no effect” and the “Tmax to ACh” value ([1]; IL-1β/TNFα exposed ASM pre-treated 1 hour with DEX 10^−5M, mean±SE) was 102.9±13.1 g/g ASM weight.

For CC(C)NCC(O)c1ccc(O)c(O)c1 (stereo not drawn) [isoproterenol], the EC50 ([2]; Oryctolagus cuniculus, read-out: pD50 for isoproterenol (converted)) was 813 nM and the “maximal relaxation (Rmax) to isoproterenol” value [2] was 57.7±7.1%.
